Experimental data as given in ChEMBL document CHEMBL1201862, “PubChem BioAssay data set” (2004).
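Five compound concentrations were applied to cells in 96-well plates for 48 hours; endpoints were derived by simple linear interpolation of the resulting dose-response curve. The concentration for 50% growth inhibition is given as GI50.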 Calls of active or inactive are those of the source. Cut-off read from the data, not from the text of the source: active = GI50 up to about 1.1 µM and inactive = higher.

Tests used:
Experiment in all cases: NCI tumour cell line growth inhibition, 48 h
[1] = system: NCI-H226
[2] = system: MOLT-4
[3] = system: A498
[4] = system: LOX IMVI
[5] = system: SK-MEL-28
[6] = system: SW-620
[7] = system: DMS-114
[8] = system: K562
[9] = system: KM-20L2
[10] = system: KM12
[11] = system: SK-MEL-5
[12] = system: SF-268
[13] = system: NCI/ADR-RES
[14] = system: PC-3
[15] = system: MDA-MB-231
[16] = system: MCF7
[17] = system: OVCAR-4
[18] = system: CAKI-1
[19] = system: SR

SMILES	GI50 [1]	GI50 [2]	GI50 [3]	GI50 [4]	GI50 [5]	GI50 [6]	GI50 [7]	GI50 [8]	GI50 [9]	GI50 [10]	GI50 [11]	GI50 [12]	GI50 [13]	GI50 [14]	GI50 [15]	GI50 [16]	GI50 [17]	GI50 [18]	GI50 [19]
CC1=C(C(=O)Nc2ccccc2C)C(c2ccc(N(C)C)cc2)C(C(=O)Nc2ccccc2C)=C(C)N1	> 100 µM (inactive)	26.8 µM (inactive)	> 100 µM (inactive)	56.8 µM (inactive)	74.8 µM (inactive)	51.8 µM (inactive)	48.4 µM (inactive)	26.2 µM (inactive)	> 100 µM (inactive)	48.4 µM (inactive)	38.5 µM (inactive)	70.5 µM (inactive)	–	–	–	–	–	–	–
Cc1ccc(/N=C2N=C(Cl)/C(=C\c3ccccc3)N\2)cc1	> 100 µM (inactive)	2.33 µM (inactive)	> 100 µM (inactive)	3.76 µM (inactive)	> 100 µM (inactive)	> 25 µM (inactive)	–	5.52 µM (inactive)	–	> 22.6 µM (inactive)	48.8 µM (inactive)	> 100 µM (inactive)	> 38.5 µM (inactive)	> 79.3 µM (inactive)	> 100 µM (inactive)	> 100 µM (inactive)	65.2 µM (inactive)	> 100 µM (inactive)	0.625 µM (active)
COC(=O)C1(CCC(C)=O)CCCCCC1=O (stereo not drawn)	> 100 µM (inactive)	> 100 µM (inactive)	> 100 µM (inactive)	> 100 µM (inactive)	> 100 µM (inactive)	> 100 µM (inactive)	–	> 100 µM (inactive)	–	> 100 µM (inactive)	> 100 µM (inactive)	> 100 µM (inactive)	> 100 µM (inactive)	> 100 µM (inactive)	> 100 µM (inactive)	> 100 µM (inactive)	> 100 µM (inactive)	> 100 µM (inactive)	> 100 µM (inactive)
COC(=O)c1ccc(C)cc1CC1Cc2ccc(C)cc2C1=O (stereo not drawn)	6.04 µM (inactive)	5.68 µM (inactive)	1.53 µM (inactive)	5.25 µM (inactive)	8.43 µM (inactive)	4.17 µM (inactive)	–	3.21 µM (inactive)	–	4.27 µM (inactive)	7.29 µM (inactive)	12.2 µM (inactive)	2.59 µM (inactive)	12.1 µM (inactive)	14.9 µM (inactive)	4.39 µM (inactive)	16.1 µM (inactive)	7.13 µM (inactive)	3.05 µM (inactive)
CC(C)CCCC(C)C1CCC2C3CC([N+](=O)[O-])=C4CC(O)CCC4(C)C3CCC12C (stereo not drawn)	–	24.2 µM (inactive)	21.8 µM (inactive)	19.6 µM (inactive)	13.7 µM (inactive)	25.9 µM (inactive)	22 µM (inactive)	9.62 µM (inactive)	18.5 µM (inactive)	16.4 µM (inactive)	> 10 µM (inactive)	24.3 µM (inactive)	–	–	–	–	21.4 µM (inactive)	24.1 µM (inactive)	15 µM (inactive)
COc1cccc(N(CN2C(=O)CCC2C(=O)O)C(C)=O)c1 (stereo not drawn)	> 100 µM (inactive)	> 100 µM (inactive)	> 100 µM (inactive)	> 100 µM (inactive)	> 100 µM (inactive)	> 100 µM (inactive)	–	> 100 µM (inactive)	–	> 100 µM (inactive)	> 100 µM (inactive)	> 100 µM (inactive)	> 100 µM (inactive)	> 100 µM (inactive)	> 100 µM (inactive)	> 100 µM (inactive)	> 100 µM (inactive)	> 100 µM (inactive)	> 100 µM (inactive)
CN[C@@H](Cc1cccc2ccccc12)C(=O)N[C@@H](CC(C)C)B(O)O	0.00211 µM (active)	< 0.01 µM (active)	< 0.01 µM (active)	< 0.01 µM (active)	< 0.01 µM (active)	< 0.01 µM (active)	–	< 0.01 µM (active)	–	< 0.01 µM (active)	< 0.01 µM (active)	< 0.01 µM (active)	< 0.0224 µM (active)	< 0.0119 µM (active)	< 0.01 µM (active)	< 0.01 µM (active)	< 0.01 µM (active)	< 0.01 µM (active)	< 0.01 µM (active)
CCOC(=O)/C(C#N)=C/c1ccc(SCc2ccco2)c([N+](=O)[O-])c1	> 100 µM (inactive)	> 100 µM (inactive)	> 100 µM (inactive)	> 100 µM (inactive)	> 100 µM (inactive)	> 100 µM (inactive)	–	> 100 µM (inactive)	–	> 100 µM (inactive)	> 100 µM (inactive)	> 100 µM (inactive)	> 100 µM (inactive)	> 100 µM (inactive)	> 100 µM (inactive)	> 100 µM (inactive)	> 100 µM (inactive)	> 100 µM (inactive)	> 100 µM (inactive)
COc1cc(Nc2cnc3cc(N)ccc3n2)cc(OC)c1OC	–	52.2 µM (inactive)	> 100 µM (inactive)	65.5 µM (inactive)	> 100 µM (inactive)	> 100 µM (inactive)	65.8 µM (inactive)	42.3 µM (inactive)	> 100 µM (inactive)	> 100 µM (inactive)	69 µM (inactive)	> 100 µM (inactive)	–	–	–	–	> 100 µM (inactive)	83.4 µM (inactive)	44.1 µM (inactive)
OCc1ccc2c(c1)CC1(C2)Cc2cc3c(cc2C1)CCC3	22.4 µM (inactive)	4.41 µM (inactive)	5.86 µM (inactive)	3.66 µM (inactive)	8.3 µM (inactive)	1.77 µM (inactive)	–	0.585 µM (active)	–	1.9 µM (inactive)	2.3 µM (inactive)	17.5 µM (inactive)	2.9 µM (inactive)	1.19 µM (inactive)	1.34 µM (inactive)	2.5 µM (inactive)	17.4 µM (inactive)	6.31 µM (inactive)	1.14 µM (inactive)
COC1OC(C)/C(=N/O)C2OC(C)(C)OC12 (stereo not drawn)	> 100 µM (inactive)	> 100 µM (inactive)	> 100 µM (inactive)	> 100 µM (inactive)	> 100 µM (inactive)	> 100 µM (inactive)	–	> 100 µM (inactive)	–	> 100 µM (inactive)	> 100 µM (inactive)	> 100 µM (inactive)	> 100 µM (inactive)	> 100 µM (inactive)	> 100 µM (inactive)	78.7 µM (inactive)	> 100 µM (inactive)	> 100 µM (inactive)	> 100 µM (inactive)
CN1C2CCC1CC(=CCOC(c1ccc(F)cc1)c1ccc(F)cc1)C2	20.3 µM (inactive)	15 µM (inactive)	14.7 µM (inactive)	16.8 µM (inactive)	18.9 µM (inactive)	30.8 µM (inactive)	–	5.94 µM (inactive)	–	15 µM (inactive)	10.3 µM (inactive)	12.9 µM (inactive)	23.3 µM (inactive)	16.1 µM (inactive)	17.9 µM (inactive)	16.6 µM (inactive)	16.2 µM (inactive)	16.4 µM (inactive)	15.8 µM (inactive)
COc1ccc(NCc2cc(OC)c(OC)c(OC)c2)cc1	–	0.451 µM (active)	0.543 µM (active)	0.519 µM (active)	0.275 µM (active)	0.234 µM (active)	–	–	0.228 µM (active)	0.13 µM (active)	0.207 µM (active)	1 µM (active)	–	–	–	–	21.4 µM (inactive)	–	–
Nc1nc(CCl)nc(Nc2ccccc2)n1	26.2 µM (inactive)	15.8 µM (inactive)	–	–	15.8 µM (inactive)	21.3 µM (inactive)	18.4 µM (inactive)	> 10 µM (inactive)	18.6 µM (inactive)	15.1 µM (inactive)	17.5 µM (inactive)	19.2 µM (inactive)	–	–	–	–	17.4 µM (inactive)	12.4 µM (inactive)	12.9 µM (inactive)
CCCCCn1c(=O)c2c(=O)[nH][nH]c2c2ccccc21	> 100 µM (inactive)	> 100 µM (inactive)	> 100 µM (inactive)	> 100 µM (inactive)	> 100 µM (inactive)	> 100 µM (inactive)	–	> 100 µM (inactive)	–	> 100 µM (inactive)	> 100 µM (inactive)	> 100 µM (inactive)	> 100 µM (inactive)	> 100 µM (inactive)	> 100 µM (inactive)	> 100 µM (inactive)	> 100 µM (inactive)	> 100 µM (inactive)	> 100 µM (inactive)
CCOC(=O)c1ccc(NC(=O)Oc2ccc3c(C)cc(=O)oc3c2)cc1	32.7 µM (inactive)	22.5 µM (inactive)	> 100 µM (inactive)	34.5 µM (inactive)	34.9 µM (inactive)	36.2 µM (inactive)	–	24.3 µM (inactive)	–	20.9 µM (inactive)	14.7 µM (inactive)	37 µM (inactive)	37 µM (inactive)	38.4 µM (inactive)	30.3 µM (inactive)	30.8 µM (inactive)	50.1 µM (inactive)	36.1 µM (inactive)	24.2 µM (inactive)
OC1c2ccccc2[C@@H]2[C@H]1[C@@H](c1ccccc1)C1(Cc3ccccc3C1O)[C@H]2c1ccccc1 (stereo partly drawn)	5.28 µM (inactive)	2.45 µM (inactive)	10.1 µM (inactive)	2.49 µM (inactive)	9.55 µM (inactive)	5.01 µM (inactive)	–	3.02 µM (inactive)	–	2.77 µM (inactive)	6.21 µM (inactive)	6.7 µM (inactive)	5.36 µM (inactive)	3 µM (inactive)	5.22 µM (inactive)	1.99 µM (inactive)	4.04 µM (inactive)	8.09 µM (inactive)	1.11 µM (active)
NC1=C(NC(=O)Cc2ccccc2F)C(=O)c2ccccc2C1=O	> 100 µM (inactive)	> 100 µM (inactive)	–	–	> 100 µM (inactive)	97.3 µM (inactive)	41.8 µM (inactive)	> 100 µM (inactive)	40.7 µM (inactive)	> 100 µM (inactive)	–	34.6 µM (inactive)	–	–	–	–	42 µM (inactive)	> 100 µM (inactive)	–
